From US12378243B2, “Quinoline compounds as inhibitors of KRAS” (Incyte Corporation, priority 2021, dated 2025)

How the values were obtained:
KRAS G12D = KRAS G12D (Homo sapiens, UniProt P01116, G12D); assay: GDP-GTP exchange assay, KRAS G12D; format: biochemical; conditions: bodipy-loaded KRAS G12D 2.5 nM, GppNHp 500 uM, SOS1 150 nM; 4 hours pre-incubation, 2 hours incubation; read-out: G12D_exchange
In short: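 Nucleotide exchange started with 1 mM GppNHp and 300 nM SOS1, then 2 h at ambient temperature. IC50 from four-parameter logistic fit with variable Hill slope.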

Caco-2 cells = assay: Caco2 assay (permeability, A-B); format: in vitro ADME; conditions: Table 4; Papp absorptive direction (A-B), test compound 50 μM, 120 minutes at 37° C.
In short: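 Caco-2 monolayers grown 22-25 days on Transwells, used only at TEER ≥300 Ω·cm^2. Compound at 50 μM in HBSS added apically, receiver HBSS with 4% BSA; 120 min at 37 °C. LCMS quantification; Papp from receiver flux slope, membrane area and initial donor amount.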

KRAS G12V mutant = KRAS G12V mutant (Homo sapiens, UniProt P01116, G12V); assay: GDP-GTP exchange assay, KRAS G12V; format: biochemical; conditions: bodipy loaded KRAS G12V 2.5 nM; 3 hours incubation after adding GppNHp-SOS1 mixture; read-out: G12V_exchange
KRAS G12V mutant, sequence (P01116 1-188 isoform P01116-2 G12V): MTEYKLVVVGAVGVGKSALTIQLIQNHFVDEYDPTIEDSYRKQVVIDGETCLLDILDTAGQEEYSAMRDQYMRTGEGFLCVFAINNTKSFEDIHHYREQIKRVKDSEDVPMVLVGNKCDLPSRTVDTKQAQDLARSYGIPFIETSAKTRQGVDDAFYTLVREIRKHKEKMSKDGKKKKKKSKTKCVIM

KRAS G12D, sequence (P01116 1-188 isoform P01116-2 G12D): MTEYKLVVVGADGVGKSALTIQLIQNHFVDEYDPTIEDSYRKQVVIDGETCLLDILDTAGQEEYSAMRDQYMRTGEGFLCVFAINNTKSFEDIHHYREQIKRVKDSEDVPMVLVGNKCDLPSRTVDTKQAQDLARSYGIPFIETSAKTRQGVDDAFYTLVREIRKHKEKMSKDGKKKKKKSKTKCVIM

SMILES | IC50 (KRAS G12D) [nM] | Caco-2 (Caco-2 cells) | IC50 (KRAS G12V mutant) [nM]
CC(O)c1nc2c(F)c(-c3cccc(Cl)c3Cl)c(CCC#N)cc2c2c1cc([C@H]1C[C@H]3C[C@H]3N1C(=O)C1(F)CC1)n2[C@H]1[C@H]2CN[C@@H]1C2 (stereo partly drawn) [Example 63, 3-(1-((1R,4R,5S)-2-Azabicyclo[2.1.1]hexan-5-yl)-7-(2,3-dichlorophenyl)-6-fluoro-2-((1R,3R,5R)-2-(1-fluorocyclopropane-1-carbonyl)-2-azabicyclo[3.1.0]hexan-3-yl)-4-(1-hydroxyethyl)-1H-pyrrolo[3,2-c]quinolin-8-yl)propanenitrile] | < 100 | +++ (a Caco-2 value of >1) | < 100
Cc1nc2c(F)c(-c3cccc(Cl)c3Cl)c(CCC#N)cc2c2c1cc([C@H]1C[C@H]3C[C@H]3N1C(=O)C1(F)CC1)n2[C@H]1[C@H]2CN[C@@H]1C2 [Example 64, 3-(1-((1R,4R,5S)-2-Azabicyclo[2.1.1]hexan-5-yl)-7-(2,3-dichlorophenyl)-6-fluoro-2-((1R,3R,5R)-2-(1-fluorocyclopropane-1-carbonyl)-2-azabicyclo[3.1.0]hexan-3-yl)-4-methyl-1H-pyrrolo[3,2-c]quinolin-8-yl)propanenitrile] | < 100 | +++ (a Caco-2 value of >1) | 100 to 1000
CC(O)c1nc2c(F)c(-c3cccc(Cl)c3Cl)c(CCC#N)cc2c2c1cc([C@@H](C)NC(=O)C1(F)CC1)n2[C@H]1[C@H]2CN[C@@H]1C2 (stereo partly drawn) [Example 65, N-((1R)-1-(1-((1R,4R,5S)-2-Azabicyclo[2.1.1]hexan-5-yl)-8-(2-cyanoethyl)-7-(2,3-dichlorophenyl)-6-fluoro-4-(1-hydroxyethyl)-1H-pyrrolo[3,2-c]quinolin-2-yl)ethyl)-1-fluorocyclopropane-1-carboxamide] | < 100 | +++ (a Caco-2 value of >1) | < 100
CC(O)c1nc2c(F)c(-c3cccc(Cl)c3Cl)c(CCC#N)cc2c2c1cc([C@@H](C)NC(=O)C1(F)CCC1)n2[C@H]1[C@H]2CN[C@@H]1C2 (stereo partly drawn) [Example 66, N-((1R)-1-(1-((1R,4R,5S)-2-azabicyclo[2.1.1]hexan-5-yl)-8-(2-cyanoethyl)-7-(2,3-dichlorophenyl)-6-fluoro-4-(1-hydroxyethyl)-1H-pyrrolo[3,2-c]quinolin-2-yl)ethyl)-1-fluorocyclobutane-1-carboxamide] | < 100 | +++ (a Caco-2 value of >1) | < 100
Cc1cc(C(C)c2cc3c(C)nc4c(F)c(-c5cccc(Cl)c5C)c(CCC#N)cc4c3n2[C@H]2[C@H]3CN[C@@H]2C3)c(=O)n(C)n1 (stereo partly drawn) [Example 67, 3-(1-((1R,4R,5S)-2-azabicyclo[2.1.1]hexan-5-yl)-7-(3-chloro-2-methylphenyl)-2-(1-(2,6-dimethyl-3-oxo-2,3-dihydropyridazin-4-yl)ethyl)-6-fluoro-4-methyl-1H-pyrrolo[3,2-c]quinolin-8-yl)propanenitrile] | < 100 | +++ (a Caco-2 value of >1) | < 100
Cc1nc2c(F)c(-c3cccc(Cl)c3Cl)c(CCC#N)cc2c2c1cc([C@@H](C)NC(=O)c1ccncn1)n2[C@H]1[C@H]2CN[C@@H]1C2 [Example 68, N-((1R)-1-(1-((1R,4R,5S)-2-azabicyclo[2.1.1]hexan-5-yl)-8-(2-cyanoethyl)-7-(2,3-dichlorophenyl)-6-fluoro-4-methyl-1H-pyrrolo[3,2-c]quinolin-2-yl)ethyl)pyrimidine-4-carboxamide] | < 100 | +++ (a Caco-2 value of >1) | < 100
Cc1nc2c(F)c(-c3cccc(Cl)c3Cl)c(CCC#N)cc2c2c1cc([C@@H](C)NC(=O)c1cccnn1)n2[C@H]1[C@H]2CN[C@@H]1C2 [Example 69, N-((1R)-1-(1-((1R,4R,5S)-2-azabicyclo[2.1.1]hexan-5-yl)-8-(2-cyanoethyl)-7-(2,3-dichlorophenyl)-6-fluoro-4-methyl-1H-pyrrolo[3,2-c]quinolin-2-yl)ethyl)pyridazine-3-carboxamide] | < 100 | +++ (a Caco-2 value of >1) | < 100
Cc1nc2c(F)c(-c3cccc(Cl)c3Cl)c(CCC#N)cc2c2c1cc([C@@H](C)NC(=O)N1CC(F)(F)C1)n2[C@H]1[C@H]2CN[C@@H]1C2 [Example 70, N-((1R)-1-(1-((1R,4R,5S)-2-azabicyclo[2.1.1]hexan-5-yl)-8-(2-cyanoethyl)-7-(2,3-dichlorophenyl)-6-fluoro-4-methyl-1H-pyrrolo[3,2-c]quinolin-2-yl)ethyl)-3,3-difluoroazetidine-1-carboxamide] | < 100 | +++ (a Caco-2 value of >1) | < 100
Cc1nc2c(F)c(-c3cccc(Cl)c3Cl)c(CCC#N)cc2c2c1cc([C@@H](C)Nc1cnn(C)c1)n2[C@H]1[C@H]2CN[C@@H]1C2 [Example 71, 3-(1-((1R,4R,5S)-2-azabicyclo[2.1.1]hexan-5-yl)-7-(2,3-dichlorophenyl)-6-fluoro-4-methyl-2-((R)-1-((1-methyl-1H-pyrazol-4-yl)amino)ethyl)-1H-pyrrolo[3,2-c]quinolin-8-yl)propanenitrile] | < 100 | +++ (a Caco-2 value of >1) | < 100
CN(C)C(=O)c1ccc(-c2nc3c(F)c(-c4cccc(Cl)c4Cl)c(CCC#N)cc3c3c2cc([C@H]2CCCN2C(=O)C2(F)CC2)n3[C@H]2[C@H]3CN[C@@H]2C3)cn1 [Example 72, 5-(1-((1R,4R,5S)-2-Azabicyclo[2.1.1]hexan-5-yl)-8-(2-cyanoethyl)-7-(2,3-dichlorophenyl)-6-fluoro-2-((R)-1-(1-fluorocyclopropane-1-carbonyl)pyrrolidin-2-yl)-1H-pyrrolo[3,2-c]quinolin-4-yl)-N,N-dimethylpicolinamide] | < 100 | +++ (a Caco-2 value of >1) | < 100
COC(=O)N1CCC[C@@H]1c1cc2c(-c3ccc(CN(C)C)c(F)c3F)nc3c(F)c(-c4cccc(Cl)c4Cl)c(CCC#N)cc3c2n1[C@H]1[C@H]2CN[C@@H]1C2 [Example 73, methyl (2R)-2-(1-((1R,4R,5S)-2-Azabicyclo[2.1.1]hexan-5-yl)-8-(2-cyanoethyl)-7-(2,3-dichlorophenyl)-4-(4-((dimethylamino)methyl)-2,3-difluorophenyl)-6-fluoro-1H-pyrrolo[3,2-c]quinolin-2-yl)pyrrolidine-1-carboxylate] | < 100 | +++ (a Caco-2 value of >1) | < 100
